{
  "source": "PubChem BioAssay AID1259409",
  "about": "(Chemical Carcinogenesis Research Information System (CCRIS), 2018)",
  "origin": "cited, not measured here",
  "system": "rodent chemically induced tumor inhibition, incidence and multiplicity",
  "assay": "CCRIS tumor inhibitor studies",
  "conditions": "Route [Inhibitor]: ORAL, Species: RAT, Promoter: NONE USED",
  "data": [
    {"smiles": "CC1=C(/C=C/C(C)=C/C=C/C(C)=C/C=C2C(=O)CC(C)(C)CC2=O)C(C)(C)CCC1", "values": [
      {"measurement": "tumour outcome (control, treated, inhibition, significance)", "setting": "Carcinogen: L-AZASERINE, 115-02-6, Dose [Inhibitor]: 1 MMOL/KG DIET DAILY FOR 365 D STARTING 1 WK AFTER COMPLETION OF CARCINOGEN TREATMENT (STUDY DURATION: 66 WK), Strain/Sex: WISTAR-LEWIS/FEMALE, Target Tissue: Type of Lesion: PANCREAS: ADENOMA, Dose [Carcinogen]: 10 MG/KG BW 1/WK FOR 15 WK", "value": "50%, 33%, 34%, not significant"},
      {"measurement": "tumour outcome (control, treated, inhibition, significance)", "setting": "Carcinogen: L-AZASERINE, 115-02-6, Dose [Inhibitor]: 1 MMOL/KG DIET DAILY FOR 365 D STARTING 1 WK AFTER COMPLETION OF CARCINOGEN TREATMENT (STUDY DURATION: 66 WK), Strain/Sex: WISTAR-LEWIS/FEMALE, Target Tissue: Type of Lesion: PANCREAS: CARCINOMA IN SITU, Dose [Carcinogen]: 10 MG/KG BW 1/WK FOR 15 WK", "value": "8%, 21%, -163%, not calculated"},
      {"measurement": "tumour outcome (control, treated, inhibition, significance)", "setting": "Carcinogen: L-AZASERINE, 115-02-6, Dose [Inhibitor]: 1 MMOL/KG DIET DAILY FOR 365 D STARTING 1 WK AFTER COMPLETION OF CARCINOGEN TREATMENT (STUDY DURATION: 66 WK), Strain/Sex: WISTAR-LEWIS/FEMALE, Target Tissue: Type of Lesion: PANCREAS: CARCINOMA, Dose [Carcinogen]: 10 MG/KG BW 1/WK FOR 15 WK", "value": "13%, 4%, 69%, not significant"},
      {"measurement": "tumour outcome (control, treated, inhibition, significance)", "setting": "Carcinogen: L-AZASERINE, 115-02-6, Dose [Inhibitor]: 1 MMOL/KG DIET DAILY FOR 365 D STARTING 1 WK AFTER COMPLETION OF CARCINOGEN TREATMENT (STUDY DURATION: 66 WK), Strain/Sex: WISTAR-LEWIS/FEMALE, Target Tissue: Type of Lesion: PANCREAS: NEOPLASM, Dose [Carcinogen]: 10 MG/KG BW 1/WK FOR 15 WK", "value": "71%, 58%, 18%, not significant"},
      {"measurement": "tumour outcome (control, treated, inhibition, significance)", "setting": "Carcinogen: L-AZASERINE, 115-02-6, Dose [Inhibitor]: 1 MMOL/KG DIET DAILY FOR 365 D STARTING 1 WK AFTER COMPLETION OF CARCINOGEN TREATMENT (STUDY DURATION: 66 WK), Strain/Sex: WISTAR-LEWIS/MALE, Target Tissue: Type of Lesion: PANCREAS: ADENOMA, Dose [Carcinogen]: 10 MG/KG BW 1/WK FOR 15 WK", "value": "25%, 12%, 52%, not significant"},
      {"measurement": "tumour outcome (control, treated, inhibition, significance)", "setting": "Carcinogen: L-AZASERINE, 115-02-6, Dose [Inhibitor]: 1 MMOL/KG DIET DAILY FOR 365 D STARTING 1 WK AFTER COMPLETION OF CARCINOGEN TREATMENT (STUDY DURATION: 66 WK), Strain/Sex: WISTAR-LEWIS/MALE, Target Tissue: Type of Lesion: PANCREAS: CARCINOMA IN SITU, Dose [Carcinogen]: 10 MG/KG BW 1/WK FOR 15 WK", "value": "29%, 56%, -93%, not significant"},
      {"measurement": "tumour outcome (control, treated, inhibition, significance)", "setting": "Carcinogen: L-AZASERINE, 115-02-6, Dose [Inhibitor]: 1 MMOL/KG DIET DAILY FOR 365 D STARTING 1 WK AFTER COMPLETION OF CARCINOGEN TREATMENT (STUDY DURATION: 66 WK), Strain/Sex: WISTAR-LEWIS/MALE, Target Tissue: Type of Lesion: PANCREAS: CARCINOMA, Dose [Carcinogen]: 10 MG/KG BW 1/WK FOR 15 WK", "value": "46%, 16%, 65%, p<0.05"},
      {"measurement": "tumour outcome (control, treated, inhibition, significance)", "setting": "Carcinogen: L-AZASERINE, 115-02-6, Dose [Inhibitor]: 1 MMOL/KG DIET DAILY FOR 365 D STARTING 1 WK AFTER COMPLETION OF CARCINOGEN TREATMENT (STUDY DURATION: 66 WK), Strain/Sex: WISTAR-LEWIS/MALE, Target Tissue: Type of Lesion: PANCREAS: NEOPLASM, Dose [Carcinogen]: 10 MG/KG BW 1/WK FOR 15 WK", "value": "100%, 84%, 16%, not significant"},
      {"measurement": "tumour outcome (control, treated, inhibition, significance)", "setting": "Carcinogen: L-AZASERINE, 115-02-6, Dose [Inhibitor]: 2 MMOL/KG DIET DAILY FOR 330 D STARTING 1 WK AFTER COMPLETION OF CARCINOGEN TREATMENT (STUDY DURATION: 66 WK), Strain/Sex: WISTAR-LEWIS/FEMALE, Target Tissue: Type of Lesion: PANCREAS: ADENOMA, Dose [Carcinogen]: 10 MG/KG BW 1/WK FOR 15 WK", "value": "50%, 33%, 34%, not significant"},
      {"measurement": "tumour outcome (control, treated, inhibition, significance)", "setting": "Carcinogen: L-AZASERINE, 115-02-6, Dose [Inhibitor]: 2 MMOL/KG DIET DAILY FOR 330 D STARTING 1 WK AFTER COMPLETION OF CARCINOGEN TREATMENT (STUDY DURATION: 66 WK), Strain/Sex: WISTAR-LEWIS/FEMALE, Target Tissue: Type of Lesion: PANCREAS: CARCINOMA IN SITU, Dose [Carcinogen]: 10 MG/KG BW 1/WK FOR 15 WK", "value": "8%, 17%, -113%, not calculated"},
      {"measurement": "tumour outcome (control, treated, inhibition, significance)", "setting": "Carcinogen: L-AZASERINE, 115-02-6, Dose [Inhibitor]: 2 MMOL/KG DIET DAILY FOR 330 D STARTING 1 WK AFTER COMPLETION OF CARCINOGEN TREATMENT (STUDY DURATION: 66 WK), Strain/Sex: WISTAR-LEWIS/FEMALE, Target Tissue: Type of Lesion: PANCREAS: CARCINOMA, Dose [Carcinogen]: 10 MG/KG BW 1/WK FOR 15 WK", "value": "13%, 0%, 100%, not significant"},
      {"measurement": "tumour outcome (control, treated, inhibition, significance)", "setting": "Carcinogen: L-AZASERINE, 115-02-6, Dose [Inhibitor]: 2 MMOL/KG DIET DAILY FOR 330 D STARTING 1 WK AFTER COMPLETION OF CARCINOGEN TREATMENT (STUDY DURATION: 66 WK), Strain/Sex: WISTAR-LEWIS/FEMALE, Target Tissue: Type of Lesion: PANCREAS: NEOPLASM, Dose [Carcinogen]: 10 MG/KG BW 1/WK FOR 15 WK", "value": "71%, 50%, 30%, p 0.14"},
      {"measurement": "tumour outcome (control, treated, inhibition, significance)", "setting": "Carcinogen: L-AZASERINE, 115-02-6, Dose [Inhibitor]: 2 MMOL/KG DIET DAILY FOR 330 D STARTING 1 WK AFTER COMPLETION OF CARCINOGEN TREATMENT (STUDY DURATION: 66 WK), Strain/Sex: WISTAR-LEWIS/MALE, Target Tissue: Type of Lesion: PANCREAS: ADENOMA, Dose [Carcinogen]: 10 MG/KG BW 1/WK FOR 15 WK", "value": "25%, 40%, -60%, not significant"},
      {"measurement": "tumour outcome (control, treated, inhibition, significance)", "setting": "Carcinogen: L-AZASERINE, 115-02-6, Dose [Inhibitor]: 2 MMOL/KG DIET DAILY FOR 330 D STARTING 1 WK AFTER COMPLETION OF CARCINOGEN TREATMENT (STUDY DURATION: 66 WK), Strain/Sex: WISTAR-LEWIS/MALE, Target Tissue: Type of Lesion: PANCREAS: CARCINOMA IN SITU, Dose [Carcinogen]: 10 MG/KG BW 1/WK FOR 15 WK", "value": "29%, 44%, -52%, not significant"},
      {"measurement": "tumour outcome (control, treated, inhibition, significance)", "setting": "Carcinogen: L-AZASERINE, 115-02-6, Dose [Inhibitor]: 2 MMOL/KG DIET DAILY FOR 330 D STARTING 1 WK AFTER COMPLETION OF CARCINOGEN TREATMENT (STUDY DURATION: 66 WK), Strain/Sex: WISTAR-LEWIS/MALE, Target Tissue: Type of Lesion: PANCREAS: CARCINOMA, Dose [Carcinogen]: 10 MG/KG BW 1/WK FOR 15 WK", "value": "46%, 0%, 100%, p<0.05"},
      {"measurement": "tumour outcome (control, treated, inhibition, significance)", "setting": "Carcinogen: L-AZASERINE, 115-02-6, Dose [Inhibitor]: 2 MMOL/KG DIET DAILY FOR 330 D STARTING 1 WK AFTER COMPLETION OF CARCINOGEN TREATMENT (STUDY DURATION: 66 WK), Strain/Sex: WISTAR-LEWIS/MALE, Target Tissue: Type of Lesion: PANCREAS: NEOPLASM, Dose [Carcinogen]: 10 MG/KG BW 1/WK FOR 15 WK", "value": "100%, 84%, 16%, not significant"},
      {"measurement": "tumour outcome (control, treated, inhibition, significance)", "setting": "Carcinogen: N-METHYL-N-NITROSOUREA, 684-93-5, Dose [Inhibitor]: 406 MG/KG DIET DAILY FOR 24 WK STARTING 5 D AFTER LAST CARCINOGEN DOSE (STUDY DURATION: 32 WK), Strain/Sex: F344/MALE, Target Tissue: Type of Lesion: COLON: SARCOMA, Dose [Carcinogen]: 0.5 MG 2/WK FOR 8 WK", "value": "5/40 (13%), 3/40 (8%), 38%, not calculated"},
      {"measurement": "tumour outcome (control, treated, inhibition, significance)", "setting": "Carcinogen: N-METHYL-N-NITROSOUREA, 684-93-5, Dose [Inhibitor]: 406 MG/KG DIET DAILY FOR 24 WK STARTING 5 D AFTER LAST CARCINOGEN DOSE (STUDY DURATION: 32 WK), Strain/Sex: F344/MALE, Target Tissue: Type of Lesion: COLON: TUMOR, Dose [Carcinogen]: 0.5 MG 2/WK FOR 8 WK", "value": "60%, 75%, -25%, not significant"},
      {"measurement": "tumour outcome (control, treated, inhibition, significance)", "setting": "Carcinogen: N-METHYL-N-NITROSOUREA, 684-93-5, Dose [Inhibitor]: 406 MG/KG DIET DAILY FOR 38 WK STARTING 5 D AFTER LAST CARCINOGEN DOSE (STUDY DURATION: 44 WK), Strain/Sex: F344/MALE, Target Tissue: Type of Lesion: COLON: TUMOR, Dose [Carcinogen]: 0.5 MG 2/WK FOR 6 WK", "value": "62%, 49%, 21%, not significant"},
      {"measurement": "tumour outcome (control, treated, inhibition, significance)", "setting": "Carcinogen: N-METHYL-N-NITROSOUREA, 684-93-5, Dose [Inhibitor]: 406 MG/KG DIET DAILY FOR 48 WK STARTING 5 D AFTER LAST CARCINOGEN DOSE (STUDY DURATION: 52 WK), Strain/Sex: F344/MALE, Target Tissue: Type of Lesion: COLON: TUMOR, Dose [Carcinogen]: 0.5 MG 2/WK FOR 4 WK", "value": "31%, 35%, -13%, not significant"}
    ]}
  ]
}
